Data published in ChEMBL document CHEMBL3217477, “Synthesis and biological evaluation of substituted - and -2,3-dihydrofuran naphthoquinones as potent anticandidal agents” (Medchemcomm, 2010).
In brackets after ≈: the same amount, converted by molar mass.

Key:
[1] = system: Candida dubliniensis; assay: Antifungal activity against Candida dubliniensis assessed as growth inhibition after 24 hrs by microbroth dilution method; type: functional
[2] = system: Candida tropicalis; assay: Antifungal activity against Candida tropicalis assessed as growth inhibition at 250 ug/mL after 24 hrs by hole plate diffusion method; type: functional; details: read-out: IZ
[3] = system: Kluyveromyces marxianus; assay: Antifungal activity against Candida kefyr assessed as growth inhibition at 250 ug/mL after 24 hrs by hole plate diffusion method; type: functional; details: read-out: IZ
[4] = system: Pichia kudriavzevii; assay: Antifungal activity against Candida krusei assessed as growth inhibition at 250 ug/mL after 24 hrs by hole plate diffusion method; type: functional; details: read-out: IZ
[5] = Hemolytic activity in Swiss mouse erythrocytes at 50 ug/mL after 1 hr by spectrophotometric analysis relative to control; type: ADME, cell-based, Erythrocyte; details: read-out: Activity
[6] = system: Candida dubliniensis; assay: Antifungal activity against Candida dubliniensis assessed as growth inhibition at 250 ug/mL after 24 hrs by hole plate diffusion method; type: functional; details: read-out: IZ
[7] = Cytotoxicity against mouse NIH/3T3 cells assessed as dead cells at 12.5 ug/mL after 72 hrs by Alamar Blue assay relative to control; type: cell-based; details: nih3t3, 72 h
[8] = system: Candida parapsilosis; assay: Antifungal activity against Candida parapsilosis assessed as growth inhibition at 250 ug/mL after 24 hrs by hole plate diffusion method; type: functional; details: Lodderomyces parapsilosis, read-out: IZ
[9] = system: Candida tropicalis; assay: Antifungal activity against Candida tropicalis assessed as growth inhibition after 24 hrs by microbroth dilution method; type: functional
[10] = system: Candida albicans; assay: Antifungal activity against Candida albicans assessed as growth inhibition at 250 ug/mL after 24 hrs by hole plate diffusion method; type: functional; details: read-out: IZ
[11] = system: Candida parapsilosis; assay: Antifungal activity against Candida parapsilosis assessed as growth inhibition after 24 hrs by microbroth dilution method; type: functional; details: Lodderomyces parapsilosis
[12] = system: Candida albicans; assay: Antifungal activity against Candida albicans ATCC 90028 assessed as growth inhibition after 24 hrs by microbroth dilution method; type: functional; details: ATCC 90028, 24 h
[13] = system: Kluyveromyces marxianus; assay: Antifungal activity against Candida kefyr assessed as growth inhibition after 24 hrs by microbroth dilution method; type: functional
[14] = system: Pichia kudriavzevii; assay: Antifungal activity against Candida krusei assessed as growth inhibition after 24 hrs by microbroth dilution method; type: functional
[15] = system: Candida albicans; assay: Antifungal activity against Candida albicans assessed as growth inhibition after 24 hrs by microbroth dilution method; type: functional

Row | SMILES | MIC [1] | zone of inhibition at 250 µg/mL [2] | zone of inhibition at 250 µg/mL [3] | zone of inhibition at 250 µg/mL [4] | hemolysis at 1 h, 50 ug/mL [5] | zone of inhibition at 250 µg/mL [6] | mortality [7] | zone of inhibition at 250 µg/mL [8] | MIC [9] | zone of inhibition at 250 µg/mL [10] | MIC [11] | MIC [12] | MIC [13] | MIC [14] | MIC [15]
1 | Cc1ccc(C2CC3=C(O2)c2ccccc2C(=O)C3=O)cc1 (configuration not stated) | 2.69 µM (≈ 0.781 µg/mL) | 2.26 mm | 0 mm | 5.77 mm | 5.28% | 6.44 mm | 0% | 0 mm | 43.1 µM (≈ 12.5 µg/mL) | 0.39 mm | 10.8 µM (≈ 3.13 µg/mL) | 10.8 µM (≈ 3.13 µg/mL) | 5.39 µM (≈ 1.56 µg/mL) | 5.39 µM (≈ 1.56 µg/mL) | 10.8 µM (≈ 3.13 µg/mL)
2 | O=C1C(=O)c2ccccc2C2=C1CC(c1ccc(Cl)cc1)O2 (configuration not stated) | 40.2 µM (≈ 12.5 µg/mL) | 2.21 mm | 1.96 mm | 5.65 mm | -1.51% | 9.01 mm | 0% | 6.11 mm | 20.1 µM (≈ 6.25 µg/mL) | 1.5 mm | 10.1 µM (≈ 3.12 µg/mL) | 80.5 µM (≈ 25 µg/mL) | 5.02 µM (≈ 1.56 µg/mL) | 40.2 µM (≈ 12.5 µg/mL) | 40.2 µM (≈ 12.5 µg/mL)
3 | O=C1C2=C(OC(c3ccccc3)C2)C(=O)c2ccccc21 (configuration not stated) | 14.9 µM (≈ 4.12 µg/mL) | 7.7 mm | 1.96 mm | 8.29 mm | -1.44% | 4.3 mm | 0% | 6.88 mm | 45.2 µM (≈ 12.5 µg/mL) | 17 mm | 90.5 µM (≈ 25 µg/mL) | 90.5 µM (≈ 25 µg/mL) | 90.5 µM (≈ 25 µg/mL) | 90.5 µM (≈ 25 µg/mL) | 11.3 µM (≈ 3.12 µg/mL)
4 | CC1(C)CC2=C(O1)c1ccccc1C(=O)C2=O [NOR-BETA-LAPACHONE] | 6.84 µM (≈ 1.56 µg/mL) | 4.78 mm | 8.27 mm | 9.01 mm | -2.4% | 0.1 mm | 11% | 7.41 mm | 54.8 µM (≈ 12.5 µg/mL) | 1.64 mm | 27.4 µM (≈ 6.25 µg/mL) | 110 µM (≈ 25 µg/mL) | 110 µM (≈ 25 µg/mL) | 110 µM (≈ 25 µg/mL) | 54.8 µM (≈ 12.5 µg/mL)
5 | O=C1C2=C(OC(c3ccc(F)cc3)C2)C(=O)c2ccccc21 (configuration not stated) | 42.5 µM (≈ 12.5 µg/mL) | 3.31 mm | 7.28 mm | 9.12 mm | -1.95% | 2.66 mm | 0% | 3.86 mm | 42.5 µM (≈ 12.5 µg/mL) | 10.3 mm | 42.5 µM (≈ 12.5 µg/mL) | 85 µM (≈ 25 µg/mL) | 85 µM (≈ 25 µg/mL) | 85 µM (≈ 25 µg/mL) | 21.2 µM (≈ 6.25 µg/mL)
6 | O=C1C2=C(OC(c3ccc(Br)cc3)C2)C(=O)c2ccccc21 (configuration not stated) | 70.4 µM (≈ 25 µg/mL) | 0 mm | 0 mm | 7.5 mm | 2.53% | 0.49 mm | 0% | 9.18 mm | 35.2 µM (≈ 12.5 µg/mL) | 1.39 mm | 35.2 µM (≈ 12.5 µg/mL) | 70.4 µM (≈ 25 µg/mL) | 70.4 µM (≈ 25 µg/mL) | 70.4 µM (≈ 25 µg/mL) | 35.2 µM (≈ 12.5 µg/mL)
7 | O=C1C(=O)c2ccccc2C2=C1CC(c1ccc(Br)cc1)O2 (configuration not stated) | 2.19 µM (≈ 0.778 µg/mL) | 0 mm | 8.68 mm | 11.3 mm | 4.59% | 9.23 mm | 0% | 7.75 mm | 8.79 µM (≈ 3.12 µg/mL) | 6.17 mm | 8.79 µM (≈ 3.12 µg/mL) | 70.4 µM (≈ 25 µg/mL) | 4.39 µM (≈ 1.56 µg/mL) | 4.39 µM (≈ 1.56 µg/mL) | 35.2 µM (≈ 12.5 µg/mL)
8 | CC1(c2ccccc2)CC2=C(O1)c1ccccc1C(=O)C2=O (configuration not stated) | 5.65 µM (≈ 1.64 µg/mL) | 3.48 mm | 10.1 mm | 8.52 mm | -1.2% | 12.9 mm | 0% | 7.34 mm | 11.3 µM (≈ 3.28 µg/mL) | 8.41 mm | 45.2 µM (≈ 13.1 µg/mL) | 45.2 µM (≈ 13.1 µg/mL) | 11.3 µM (≈ 3.28 µg/mL) | 22.6 µM (≈ 6.57 µg/mL) | 45.2 µM (≈ 13.1 µg/mL)
9 | CC1(C)CC2=C(O1)C(=O)c1ccccc1C2=O | 13.7 µM (≈ 3.12 µg/mL) | 5.63 mm | 18.4 mm | 14.6 mm | 2.1% | 15.2 mm | 20% | 9.29 mm | 3.42 µM (≈ 0.781 µg/mL) | 21.3 mm | 110 µM (≈ 25 µg/mL) | 54.8 µM (≈ 12.5 µg/mL) | 27.4 µM (≈ 6.25 µg/mL) | 13.4 µM (≈ 3.06 µg/mL) | 0.54 µM (≈ 0.123 µg/mL)
10 | CC1(c2ccccc2)CC2=C(O1)C(=O)c1ccccc1C2=O (configuration not stated) | 45.2 µM (≈ 13.1 µg/mL) | 3.83 mm | 7.42 mm | 7.05 mm | 4.54% | 4.63 mm | 0% | 0 mm | 45.2 µM (≈ 13.1 µg/mL) | 16.1 mm | 45.2 µM (≈ 13.1 µg/mL) | 45.2 µM (≈ 13.1 µg/mL) | 90.5 µM (≈ 26.3 µg/mL) | 172 µM (≈ 50 µg/mL) | 45.2 µM (≈ 13.1 µg/mL)
11 | CCC(C)n1ncn(-c2ccc(N3CCN(c4ccc(OCC5COC(Cn6cncn6)(c6ccc(Cl)cc6Cl)O5)cc4)CC3)cc2)c1=O (configuration not stated) [ITRACONAZOLE] | 0.02 µM (≈ 0.0141 µg/mL) | 23.6 mm | 30.9 mm | 30.3 mm |  | 19.4 mm |  | 26 mm | 0.17 µM (≈ 0.12 µg/mL) | 23.1 mm | 0.02 µM (≈ 0.0141 µg/mL) | 0.17 µM (≈ 0.12 µg/mL) | 0.08 µM (≈ 0.0565 µg/mL) | 0.7 µM (≈ 0.494 µg/mL) | 4.42 µM (≈ 3.12 µg/mL)
12 | O=C1C(=O)c2ccccc2C2=C1CC(c1ccc(F)cc1)O2 (configuration not stated) | 42.5 µM (≈ 12.5 µg/mL) | 8.59 mm | 8.96 mm | 9.8 mm | -0.202% | 1.7 mm | 0% | 8.12 mm | 42.5 µM (≈ 12.5 µg/mL) | 1.37 mm | 42.5 µM (≈ 12.5 µg/mL) | 85 µM (≈ 25 µg/mL) | 42.5 µM (≈ 12.5 µg/mL) | 10.6 µM (≈ 3.12 µg/mL) | 42.5 µM (≈ 12.5 µg/mL)
13 | Cc1ccc(C2CC3=C(O2)C(=O)c2ccccc2C3=O)c(C)c1 (configuration not stated) | 41.1 µM (≈ 12.5 µg/mL) | 6.42 mm | 0 mm | 9.87 mm | -0.217% | 2.02 mm | 0% | 0 mm | 41.1 µM (≈ 12.5 µg/mL) | 1.38 mm | 82.1 µM (≈ 25 µg/mL) | 82.1 µM (≈ 25 µg/mL) | 82.1 µM (≈ 25 µg/mL) | 82.1 µM (≈ 25 µg/mL) | 41.1 µM (≈ 12.5 µg/mL)
14 | COc1cccc2c1C(=O)c1c(O)c3c(c(O)c1C2=O)C[C@@](O)(C(=O)CO)C[C@@H]3O[C@H]1C[C@H](N)[C@H](O)[C@H](C)O1 [DOXORUBICIN] |  |  |  |  |  |  | 36% |  |  |  |  |  |  |  | 
15 | OC(Cn1cncn1)(Cn1cncn1)c1ccc(F)cc1F [FLUCONAZOLE] | 1.63 µM (≈ 0.499 µg/mL) | 15 mm | 21.2 mm | 9.64 mm |  | 12.8 mm |  | 10.4 mm | 313 µM (≈ 96 µg/mL) | 13 mm | 1.63 µM (≈ 0.499 µg/mL) | 1.63 µM (≈ 0.499 µg/mL) | 1.63 µM (≈ 0.499 µg/mL) | 104 µM (≈ 32 µg/mL) | 1.63 µM (≈ 0.499 µg/mL)
